Source: patent US20170000133A1, “BENZOXABOROLE FUNGICIDES” (SYNGENTA PARTICIPATIONS AG, priority 2013, published 2017)

Columns and labels:
[1] = test system: Glomerella lagenarium (Colletotrichum lagenarium); assay: Glomerella lagenarium (Colletotrichum lagenarium) / liquid culture (anthracnose); type: cell-based; conditions: Colletotrichum orbiculare, PDB potato dextrose broth, 24° C., 3-4 days after application, read-out: disease control (inhibition of growth measured photometrically)
Method: (§1) 11. Glomerella lagenarium (Colletotrichum lagenarium)/Liquid Culture (Anthracnose): Conidia of the fungus from cryogenic storage were directly mixed into nutrient broth (PDB potato dextrose broth). After placing a DMSO solution of test compound into a 96-well microtiter plate at an application rate of 200 ppm, the nutrient broth containing the fungal spores was added. The test plates were incubated at 24° C. and the inhibition of growth was measured photometrically 3-4 days after application.

[2] = test system: Mycosphaerella graminicola (Septoria tritici); assay: Mycosphaerella graminicola (Septoria tritici) / liquid culture (Septoria blotch); type: cell-based; conditions: Zymoseptoria tritici, PDB potato dextrose broth, 24° C., 4-5 days after application, read-out: disease control (inhibition of growth determined photometrically)
Method: as §1, with “13. Mycosphaerella graminicola (Septoria tritici)/Liquid” for “11. Glomerella lagenarium (Colletotrichum lagenarium)/Liquid”, “(Septoria Blotch):” for “(Anthracnose):”, “determined” for “measured”, “4-5” for “3-4”

[3] = test system: Gaeumannomyces graminis; assay: Gaeumannomyces graminis / liquid culture (take-all of cereals); type: cell-based; conditions: PDB potato dextrose broth, 24° C., 4-5 days after application, read-out: disease control (inhibition of growth determined photometrically)
Method: (§2) 14. Gaeumannomyces graminis/Liquid Culture (Take-all of Cereals): Mycelial fragments of the fungus from cryogenic storage were directly mixed into nutrient broth (PDB potato dextrose broth). After placing a DMSO solution of test compound into a 96-well microtiter plate at an application rate of 200 ppm, the nutrient broth Cp.33, containing the fungal spores is added. The test plates were incubated at 24° C. and the inhibition of growth was determined photometrically 4-5 days after application.

[4] = test system: Monographella nivalis (Microdochium nivale); assay: Monographella nivalis (Microdochium nivale) / liquid culture (foot rot cereals); type: cell-based; conditions: PDB potato dextrose broth, 24° C., 4-5 days after application, read-out: disease control (inhibition of growth determined photometrically)
[5] = test system: Plasmopara viticola; assay: whole plant or invertebrate; type: in vivo; conditions: foliar, read-out: disease control
[6] = test system: Pythium ultimum; assay: Pythium ultimum / liquid culture (seedling damping off); type: cell-based; conditions: Globisporangium ultimum; 200 ppm; potato dextrose broth, 24° C., 2-3 days after application; read-out: disease control (inhibition of growth determined photometrically)
[7] = test system: Thanatephorus cucumeris (Rhizoctonia solani); assay: Thanatephorus cucumeris (Rhizoctonia solani) / liquid culture (foot rot, damping-off); type: cell-based; conditions: PDB potato dextrose broth, 24° C., 3-4 days after application, read-out: disease control (inhibition of growth determined photometrically)
Method: 17. Thanatephorus cucumeris (Rhizoctonia solani)/Liquid Culture (Foot Rot, Damping-Off): Mycelia fragments of a newly grown liquid culture of the fungus were directly mixed into nutrient broth (PDB potato dextrose broth). After placing a DMSO solution of the test compounds into a 96-well microtiter plate at an application rate of 200 ppm, the nutrient broth containing the fungal material was added. The test plates were incubated at 24° C. and the inhibition of growth was determined photometrically 3-4 days after application.

[8] = test system: Mycosphaerella arachidis (Cercospora arachidicola); assay: Mycosphaerella arachidis (Cercospora arachidicola) / liquid culture (early leaf spot); type: cell-based; conditions: PDB potato dextrose broth, 24° C., 4-5 days after application, read-out: disease control (inhibition of growth determined photometrically)
Method: as §2, with “12. Mycosphaerella arachidis (Cercospora arachidicola)/Liquid” for “14. Gaeumannomyces graminis/Liquid”, “(Early Leaf Spot): Conidia” for “(Take-all of Cereals): Mycelial fragments”, “broth” for “broth Cp.33,”, “was” for “is”

C=CC(=O)OCC(C)OC(=O)c1cc2c(cc1Cl)COB2O (centres unmarked) [Compound 191]
≥ 80%: inhibition at 200 ppm [1] | inhibition at 200 ppm [2] | inhibition at 200 ppm [3] | inhibition at 200 ppm [4]

O=C(OCC(F)(F)Cl)c1cc2c(cc1Cl)COB2O [Compound 192]
≥ 80%: pest or weed control at 200 ppm [5] | inhibition at 200 ppm [6] | inhibition at 200 ppm [1] | inhibition at 200 ppm [2] | inhibition at 200 ppm [3] | inhibition at 200 ppm [4] | inhibition at 200 ppm [7]

CCCCCCCOC(=O)c1cc2c(cc1Cl)COB2O [Compound 195]
≥ 80%: inhibition at 200 ppm [1] | inhibition at 200 ppm [8] | inhibition at 200 ppm [2] | inhibition at 200 ppm [3] | inhibition at 200 ppm [4] | inhibition at 200 ppm [7]

O=C(OCC1CCSCC1)c1cc2c(cc1Cl)COB2O [Compound 196]
≥ 80%: pest or weed control at 200 ppm [5] | inhibition at 200 ppm [6] | inhibition at 200 ppm [1] | inhibition at 200 ppm [2] | inhibition at 200 ppm [3] | inhibition at 200 ppm [4]

CCCCSCCOC(=O)c1cc2c(cc1Cl)COB2O [Compound 198]
≥ 80%: inhibition at 200 ppm [6] | inhibition at 200 ppm [1] | inhibition at 200 ppm [8] | inhibition at 200 ppm [2] | inhibition at 200 ppm [4] | inhibition at 200 ppm [7]

O=C(OCc1ccc(-c2ccccc2)cc1)c1cc2c(cc1Cl)COB2O [Compound 199]
≥ 80%: inhibition at 200 ppm [1] | inhibition at 200 ppm [2] | inhibition at 200 ppm [3] | inhibition at 200 ppm [4]

C=C(C)COC(=O)c1cc2c(cc1Cl)COB2O [Compound 214]
≥ 80%: inhibition at 200 ppm [6] | inhibition at 200 ppm [1] | inhibition at 200 ppm [8] | inhibition at 200 ppm [2] | inhibition at 200 ppm [3] | inhibition at 200 ppm [4] | inhibition at 200 ppm [7]

COc1ccc(OCCOC(=O)c2cc3c(cc2Cl)COB3O)cc1 [Compound 218]
≥ 80%: inhibition at 200 ppm [6] | inhibition at 200 ppm [1] | inhibition at 200 ppm [8] | inhibition at 200 ppm [2] | inhibition at 200 ppm [3] | inhibition at 200 ppm [4] | inhibition at 200 ppm [7]

O=C(OCCCCc1ccc2ccccc2c1)c1cc2c(cc1Cl)COB2O [Compound 227]
≥ 80%: inhibition at 200 ppm [1] | inhibition at 200 ppm [2] | inhibition at 200 ppm [4] | inhibition at 200 ppm [7]

O=C(OCCC(F)(F)F)c1cc2c(cc1Cl)COB2O [Compound 238]
≥ 80%: pest or weed control at 200 ppm [5] | inhibition at 200 ppm [6] | inhibition at 200 ppm [1] | inhibition at 200 ppm [2] | inhibition at 200 ppm [3] | inhibition at 200 ppm [4] | inhibition at 200 ppm [7]

O=C(OCc1cccc(F)c1)c1cc2c(cc1Cl)COB2O [Compound 241]
≥ 80%: inhibition at 200 ppm [6] | inhibition at 200 ppm [1] | inhibition at 200 ppm [8] | inhibition at 200 ppm [2] | inhibition at 200 ppm [3] | inhibition at 200 ppm [4] | inhibition at 200 ppm [7]

O=C(OCc1ccc(-c2ccccc2)cc1)c1ccc2c(c1)B(O)OC2 [Compound 325]
≥ 80%: inhibition at 200 ppm [1] | inhibition at 200 ppm [8] | inhibition at 200 ppm [2] | inhibition at 200 ppm [3] | inhibition at 200 ppm [4]

CC#CC(C)OC(=O)c1ccc2c(c1)B(O)OC2 (centres unmarked) [Compound 341]
≥ 80%: pest or weed control at 200 ppm [5] | inhibition at 200 ppm [6] | inhibition at 200 ppm [1] | inhibition at 200 ppm [8] | inhibition at 200 ppm [2] | inhibition at 200 ppm [3] | inhibition at 200 ppm [7]

Cn1cc(CCCOC(=O)c2ccc3c(c2)B(O)OC3)cn1 [Compound 345]
≥ 80%: pest or weed control at 200 ppm [5] | inhibition at 200 ppm [6] | inhibition at 200 ppm [1] | inhibition at 200 ppm [8] | inhibition at 200 ppm [3] | inhibition at 200 ppm [7]

O=C(OCCF)c1ccc2c(c1)B(O)OC2 [Compound 360]
≥ 80%: pest or weed control at 200 ppm [5] | inhibition at 200 ppm [6] | inhibition at 200 ppm [1] | inhibition at 200 ppm [8] | inhibition at 200 ppm [7]

CCCCCCCOC(=O)c1cc2c(cc1F)COB2O [Compound 378]
≥ 80%: inhibition at 200 ppm [6] | inhibition at 200 ppm [1] | inhibition at 200 ppm [8] | inhibition at 200 ppm [2] | inhibition at 200 ppm [3] | inhibition at 200 ppm [4] | inhibition at 200 ppm [7]

CCCCSCCOC(=O)c1cc2c(cc1F)COB2O [Compound 384]
≥ 80%: inhibition at 200 ppm [6] | inhibition at 200 ppm [1] | inhibition at 200 ppm [8] | inhibition at 200 ppm [2] | inhibition at 200 ppm [4] | inhibition at 200 ppm [7]

O=C(OCc1ccc(-c2ccccc2)cc1)c1cc2c(cc1F)COB2O [Compound 385]
≥ 80%: inhibition at 200 ppm [1] | inhibition at 200 ppm [8] | inhibition at 200 ppm [2] | inhibition at 200 ppm [3] | inhibition at 200 ppm [4] | inhibition at 200 ppm [7]

O=C(OCc1ccc(C(F)(F)F)cc1Cl)c1cc2c(cc1F)COB2O [Compound 386]
≥ 80%: inhibition at 200 ppm [6] | inhibition at 200 ppm [1] | inhibition at 200 ppm [8] | inhibition at 200 ppm [3] | inhibition at 200 ppm [4] | inhibition at 200 ppm [7]

C#CC(CC)OC(=O)c1cc2c(cc1F)COB2O (centres unmarked) [Compound 387]
≥ 80%: inhibition at 200 ppm [6] | inhibition at 200 ppm [1] | inhibition at 200 ppm [2] | inhibition at 200 ppm [3] | inhibition at 200 ppm [4] | inhibition at 200 ppm [7]

O=C(OC1CCC1)c1cc2c(cc1F)COB2O [Compound 392]
≥ 80%: pest or weed control at 200 ppm [5] | inhibition at 200 ppm [6] | inhibition at 200 ppm [1] | inhibition at 200 ppm [8] | inhibition at 200 ppm [2] | inhibition at 200 ppm [4] | inhibition at 200 ppm [7]

C#CCCCOC(=O)c1cc2c(cc1F)COB2O [Compound 395]
≥ 80%: pest or weed control at 200 ppm [5] | inhibition at 200 ppm [6] | inhibition at 200 ppm [1] | inhibition at 200 ppm [8] | inhibition at 200 ppm [3] | inhibition at 200 ppm [4] | inhibition at 200 ppm [7]

C[Si](C)(C)/C=C/COC(=O)c1cc2c(cc1F)COB2O [Compound 404]
≥ 80%: inhibition at 200 ppm [6] | inhibition at 200 ppm [1] | inhibition at 200 ppm [8] | inhibition at 200 ppm [2] | inhibition at 200 ppm [3] | inhibition at 200 ppm [4] | inhibition at 200 ppm [7]

COc1ccc(OCCOC(=O)c2cc3c(cc2F)COB3O)cc1 [Compound 406]
≥ 80%: inhibition at 200 ppm [6] | inhibition at 200 ppm [1] | inhibition at 200 ppm [8] | inhibition at 200 ppm [2] | inhibition at 200 ppm [3] | inhibition at 200 ppm [4] | inhibition at 200 ppm [7]

Cn1cc(CCCOC(=O)c2cc3c(cc2F)COB3O)cn1 [Compound 407]
≥ 80%: inhibition at 200 ppm [6] | inhibition at 200 ppm [1] | inhibition at 200 ppm [8] | inhibition at 200 ppm [7]

O=C(OCc1ncc(C(F)(F)F)cc1Cl)c1cc2c(cc1F)COB2O [Compound 409]
≥ 80%: pest or weed control at 200 ppm [5] | inhibition at 200 ppm [6] | inhibition at 200 ppm [1] | inhibition at 200 ppm [3] | inhibition at 200 ppm [4] | inhibition at 200 ppm [7]

COC(=O)C(OC(=O)c1cc2c(cc1F)COB2O)c1ccccc1 (centres unmarked) [Compound 411]
≥ 80%: pest or weed control at 200 ppm [5] | inhibition at 200 ppm [6] | inhibition at 200 ppm [1] | inhibition at 200 ppm [2] | inhibition at 200 ppm [3] | inhibition at 200 ppm [4]

COCCOC(=O)c1cc2c(cc1F)COB2O [Compound 412]
≥ 80%: pest or weed control at 200 ppm [5] | inhibition at 200 ppm [6] | inhibition at 200 ppm [1] | inhibition at 200 ppm [8] | inhibition at 200 ppm [4] | inhibition at 200 ppm [7]

O=C(OCCOc1ccc(Cl)cc1)c1cc2c(cc1F)COB2O [Compound 414]
≥ 80%: inhibition at 200 ppm [6] | inhibition at 200 ppm [1] | inhibition at 200 ppm [8] | inhibition at 200 ppm [2] | inhibition at 200 ppm [3] | inhibition at 200 ppm [4] | inhibition at 200 ppm [7]
